We go through 6 substances from patent US7053178B2, “Synthetic peptides and kits for diagnosis of anti-phospholipid syndrome” (Yeda Research Development Co., LTD, priority 1998, dated 2006).

For one assay, the system named is anti-β2GPI mAb ILA-3. Kind of assay: ELISA binding of ILA-3 mAb to phage-displayed hexapeptides. Further details: species or system human; scale not given here. Particulars: ILA-3 mAb 5 μg/ml, 10^9 phage particles/well, O.D. at 405 nm. The protocol: (§1) (a) Epitope Library. The hexapeptide epitope library was kindly provided by George P. Smith (University of Missouri, Columbia, MO) and was constructed by use of the phage fd-derived vector fUSE5 as described (Scott and Smith, 1990). This library consists of 2×10^8 original phage clones each containing a hexapeptide fused to the minor coat protein PIII (Scott and Smith, 1990). (b) Anti-β2GPI mAbs. The human anti-β2GPI mAbs named ILA-1, ILA-3 and G-3 (IgM), were prepared by human-human hybridoma technique from PBL of an APS patient as described (George et al., 1998). Briefly, peripheral blood cells (PBL) were separated from whole blood by Ficoll-Hypaque gradient, the PBL were exposed to pokeweed mitogen for 5 days in order to enrich the B cell population and the lymphocytes were fused with the human lymphoblastoid cell line GM4672 in the presence of polyethyleneglycol (PEG 1500). After fusion, the cells were seeded into 96-well tissue culture plates with RPMI 1640, 10% FCS and hypoxanthine-aminopterin-thymidine (HAT) selection media. New clones were detected after 4–5 weeks, grown and screened for binding to β2GPI by ELISA. All clones were subjected 4 times to limiting dilution cloning procedures in regular medium. […] The hexapeptide epitope library of section (a) above was used as described (Scott and Smith, 1990). […]
(In general: ELISA stands for enzyme-linked immunosorbent assay.)

The test system of another assay is anti-β2GPI mAb ILA-1. Kind of assay: ELISA binding of ILA-1 mAb to phage-displayed hexapeptides. The conditions noted are these: ILA-1 mAb 5 μg/ml, 10^9 phage particles/well, O.D. at 405 nm. Further details: species or system human. Here is the method:
as §1

The subject of the next assay is anti-β2GPI mAb G-3. In words: ELISA binding of G-3 mAb to phage-displayed hexapeptides. The conditions noted are these: G-3 mAb 5 μg/ml, 10^9 phage particles/well, O.D. at 405 nm. Further details: species or system human; scale not given here. Here is the method: (a) Epitope Library. The hexapeptide epitope library was kindly provided by George P. Smith (University of Missouri, Columbia, MO) and was constructed by use of the phage fd-derived vector fUSE5 as described (Scott and Smith, 1990). This library consists of 2×10^8 original phage clones each containing a hexapeptide fused to the minor coat protein PIII (Scott and Smith, 1990). (b) Anti-β2GPI mAbs. The human anti-β2GPI mAbs named ILA-1, ILA-3 and G-3 (IgM), were prepared by human-human hybridoma technique from PBL of an APS patient as described (George et al., 1998). Briefly, peripheral blood cells (PBL) were separated from whole blood by Ficoll-Hypaque gradient, the PBL were exposed to pokeweed mitogen for 5 days in order to enrich the B cell population and the lymphocytes were fused with the human lymphoblastoid cell line GM4672 in the presence of polyethyleneglycol (PEG 1500). After fusion, the cells were seeded into 96-well tissue culture plates with RPMI 1640, 10% FCS and hypoxanthine-aminopterin-thymidine (HAT) selection media. New clones were detected after 4–5 weeks, grown and screened for binding to β2GPI by ELISA. All clones were subjected 4 times to limiting dilution cloning procedures in regular medium. […] The hexapeptide epitope library of section (a) above was used as described (Scott and Smith, 1990). Briefly, a library sample containing 3.8×10^9 infectious phage particles was subjected to three rounds of selection (panning) and amplification. For each selection cycle a biotinylated mAb prepared as described in section (b) above (10 μg in the first panning and 1 μg for the others) was added in a total volume of 50 μl. The phages were preincubated with the biotinylated mAb overnight at 4° C., and the reaction mixtures were then layered in 1 ml PBS on streptavidin-coated 30-mm polystyrene petri dishes (Nunc, Kamstrup, Roskilde, Denmark) for 30 min at room temperature. Unbound phages were removed by extensive washings in PBS, and the remaining phages were eluted with 0.1M glycine-HCl, pH 2.2, and neutralized with Tris 1M. […]

Where no end group is shown, it is not given here.

Take KDKATF [K D K A T F]: in the assay on anti-β2GPI mAb ILA-3, the “Binding O.D.” value turned out to be 1178 ± 101 O.D.

For KTPRVT [K T P R V T], the “Binding O.D.” value in the assay with anti-β2GPI mAb ILA-1 stood at 1201 ± 142 O.D.

In the case of LKTPRV [L K T P R V], the “Binding O.D.” value in the assay on anti-β2GPI mAb ILA-1 is 975 ± 72 O.D.

Consider TKLRVY [T K L R V Y], for which the “Binding O.D.” value in the assay on anti-β2GPI mAb G-3 worked out at 954 ± 62 O.D.

Turning to TLLRVY [T L L R V Y], the “Binding O.D.” value in the assay with anti-β2GPI mAb G-3 is recorded as 869 ± 71 O.D.

On to TLRVYK [T L R V Y K], for which, in the assay on anti-β2GPI mAb G-3, the “Binding O.D.” value is recorded as 791 ± 33 O.D.
